Article PMC2657875 (Biochemistry, 2008)
Like-named read-outs stand apart in the source and are kept apart here.

How the values were obtained:
human NAMPT [1] = molecular target: T1, human NAMPT (Homo sapiens, UniProt P43490); assay: Stimulated ATPase activity of NAMPT; assay type: biochemical; conditions: 1 mM compound, 2 mM ATP; for ATP hydrolysis rate (ATPase activity): […] enzyme
human NAMPT [2] = molecular target: T1, human NAMPT; assay: Inhibition of non ATP-coupled NMN synthesis; assay type: biochemical
human NAMPT [3] = molecular target: T1, human NAMPT; assay: Inhibition of ATP-coupled NMN synthesis; assay type: biochemical
human NAMPT [4] = molecular target: T1, human NAMPT; assay: NAMPT kinetic parameters without ATP; assay type: biochemical; conditions: non ATP-coupled NMN synthesis
human NAMPT [5] = molecular target: T1, human NAMPT; assay: ADP/ATP isotope exchange catalyzed by NAMPT; assay type: biochemical; conditions: for concentration required for half-maximal exchange activity: ADP/ATP exchange, 0.6 µM enzyme
human NAMPT [6] = molecular target: T1, human NAMPT; assay: NAMPT kinetic parameters with ATP; assay type: biochemical
human NAMPT [7] = molecular target: T1, human NAMPT; conditions: continuous fluorometric coupled assay, with ATP (2.5 mM)
[8] = cited from earlier work
[9] = system: human vascular smooth muscular cells; conditions: cited from earlier work
[10] = system: Salmonella typhimurium NAPT; conditions: cited from earlier work

T1 sequence (P43490 whole entry): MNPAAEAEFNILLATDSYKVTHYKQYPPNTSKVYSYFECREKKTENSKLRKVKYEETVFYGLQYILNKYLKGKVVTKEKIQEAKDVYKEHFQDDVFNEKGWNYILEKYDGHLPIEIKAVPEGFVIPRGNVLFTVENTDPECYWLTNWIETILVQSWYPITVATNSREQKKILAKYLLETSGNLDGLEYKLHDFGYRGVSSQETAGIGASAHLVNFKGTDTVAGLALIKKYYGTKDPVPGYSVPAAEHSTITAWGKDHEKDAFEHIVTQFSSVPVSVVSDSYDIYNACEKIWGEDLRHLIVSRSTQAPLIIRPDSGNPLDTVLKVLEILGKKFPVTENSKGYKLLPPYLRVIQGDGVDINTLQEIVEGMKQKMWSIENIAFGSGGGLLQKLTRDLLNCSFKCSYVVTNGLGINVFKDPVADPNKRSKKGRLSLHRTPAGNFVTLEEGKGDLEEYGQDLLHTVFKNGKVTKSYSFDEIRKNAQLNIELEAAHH

## O=P(O)(O)NP(=O)(O)O [PNP, imidodiphosphate, reference compound]
Human NAMPT [1]
  ATP hydrolysis rate (ATPase activity): 2.6 min⁻¹

## NC(=O)c1ccc[n+]([C@@H]2O[C@H](COP(=O)([O-])OP(=O)(O)OC[C@H]3O[C@@H](n4cnc5c(N)ncnc54)[C@H](O)[C@@H]3O)[C@@H](O)[C@H]2O)c1 [NAD^+, nicotinamide adenine dinucleotide]
Human NAMPT [2]
  Ki: > 100 µM
Human NAMPT [3]; 2.5 mM ATP
  Ratio Km/Ki (NAM): < 1
  Ratio Km/Ki (PRPP): 5
Human NAMPT [3]; Ki versus NAM, 2.5 mM ATP
  Ki: 2100 ± 200 nM
Human NAMPT [3]; Ki versus PRPP, 2.5 mM ATP
  Ki: 140 ± 14 nM

## O=P(O)(O)O [Pi]
Human NAMPT [4]; read-out: Km of Pi
  Km: 180 ± 20 µM

## Nc1ncnc2c1ncn2[C@@H]1O[C@H](COP(=O)(O)OP(=O)(O)O)[C@@H](O)[C@H]1O [ADP]
Human NAMPT [5]
  concentration required for half-maximal exchange activity: 0.44 ± 0.05 mM

## NC(=O)C1=CN([C@@H]2O[C@H](COP(=O)(O)OP(=O)(O)OC[C@H]3O[C@@H](n4cnc5c(N)ncnc54)[C@H](O)[C@@H]3O)[C@@H](O)[C@H]2O)C=CC1 [NADH]
Human NAMPT [2]; read-out: Ki versus NAM, non ATP-coupled NMN synthesis, competitive vs NAM
  Ki: > 100 µM
Human NAMPT [3]; 2.5 mM ATP
  Ratio Km/Ki (NAM): < 1
  Ratio Km/Ki (PRPP): 3
Human NAMPT [3]; read-out: Ki versus NAM, 2.5 mM ATP
  Ki: 3200 ± 200 nM
Human NAMPT [3]; read-out: Ki versus PRPP, 2.5 mM ATP
  Ki: 220 ± 20 nM

## O=P(O)(O)OP(=O)(O)O [pyrophosphate]
Human NAMPT [1]
  ATP hydrolysis rate (ATPase activity): 1.1 min⁻¹

## Nc1ncnc2c1ncn2[C@@H]1O[C@H](COP(=O)(O)OP(=O)(O)OP(=O)(O)OP(=O)(O)OP(=O)(O)OC[C@H]2O[C@@H](n3cnc4c(N)ncnc43)[C@H](O)[C@@H]2O)[C@@H](O)[C@H]1O [Ap5A, P^1,P^5-di(adenosine-5’-) pentaphosphate, reference compound]
Human NAMPT [5]; 10 µM
  effect on ADP/ATP exchange: retained the same exchange rate

## NC(=O)c1cccnc1 [NAM, nicotinamide]
Human NAMPT [4]; no Pi
  Km: 0.855 ± 0.022 µM
Human NAMPT [4]; with Pi (2 mM phosphate)
  Km: 0.235 ± 0.017 µM
Human NAMPT [6]; read-out: apparent Km (affinity), direct [14C]NAM assay with ATP, NAD+ present
  Km: 0.017 ± 0.002 µM
Human NAMPT [7]
  Km: 57 ± 6 nM

## O=C(/C=C/c1cccnc1)NCCCCC1CCN(C(=O)c2ccccc2)CC1 [FK866, (E)-N-[4-(1-benzoylpiperidin-4-yl)butyl]-3-(pyridin-3-yl) acrylamide]
[8]; clinical trials
  binding to plasma proteins: substantial drug binding to plasma proteins
  bioavailability: low bioavailability
  intravenous clearance: rapid intravenous clearance
[8]; continuous intravenous infusions over 96 h for a period of 4 weeks
  objective responses: no objective responses
[9]
  NAD+ levels: low levels of NAD^+
  SIRT1 activity: decrease of SIRT1 activity

## Nc1ncnc2c1ncn2[C@@H]1O[C@H](COP(=O)(O)OP(=O)(O)OP(=O)(O)O)[C@@H](O)[C@H]1O [ATP]
Human NAMPT [5]
  concentration required for half-maximal exchange activity: 2.2 ± 0.2 mM
Human NAMPT [6]; ATP-coupled NMN synthesis
  Km: 7400 ± 1500 µM
  concentration above which NMN synthesis is inhibited: above 4 mM

## O=P(O)(O)OC[C@H]1O[C@H](OP(=O)(O)OP(=O)(O)O)[C@H](O)[C@@H]1O [PRPP, α-D-5-phosphoribosyl-1-pyrophosphate]
[10]; ATP-coupled NAMN synthesis
  Km: 0.022 ± 0.0033 mM
[10]; non ATP-coupled NAMN synthesis
  Km: 4.5 ± 2.2 mM
Human NAMPT [1]
  effect on ATP hydrolysis: inhibited ATP hydrolysis
Human NAMPT [5]; 100 µM
  effect on ADP/ATP exchange: near-complete inhibition
Human NAMPT [4]; no Pi
  Km: 7.2 ± 0.6 µM
Human NAMPT [4]; with Pi (2 mM phosphate)
  Km: 11.7 ± 0.8 µM
Human NAMPT [6]; ATP-coupled NMN synthesis
  Km: 0.63 ± 0.03 µM
Human NAMPT [6]; ATP-coupled vs non ATP-coupled
  fold lowering of Km by ATP: 10 fold
